Among the test systems are COLO 205 colon; HOP-62 NSCLC; MDA-MB-231 breast; NCI-H460 lung; OVCAR-4 ovarian; OVCAR-5 ovarian; RPMI-8226 leukemia; TK-10 renal.
Test in all cases: NCI anticancer screen, dose series, 48 h

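The compound was tested at five concentrations on cells cultured in 96-well plates, with a 48-hour exposure period. Abbreviation: GI50, concentration required for 50% inhibition of growth. At the TGI there is no net growth.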

With `O=C(NCc1cn(Cc2cccc(Oc3ccccc3)c2)nn1)c1cccnc1Nc1ccc(F)cc1`, the GI50 in the test on COLO 205 colon is 6.22 µM; with HOP-62 NSCLC it was 6.02 µM; with MDA-MB-231 breast, 14.5 µM; in the test with NCI-H460 lung, 5.25 µM; in the test on OVCAR-4 ovarian it was 23.4 µM; in the test with OVCAR-5 ovarian it was above 100 µM. The GI50 was above 100 µM with RPMI-8226 leukemia and 24.5 µM in the test on TK-10 renal. Also, the TGI with COLO 205 colon was above 100 µM; with HOP-62 NSCLC, 32.5 µM; in the test on MDA-MB-231 breast, above 100 µM; in the test with NCI-H460 lung it was above 100 µM; with OVCAR-4 ovarian it was above 100 µM; in the test on OVCAR-5 ovarian, above 100 µM. For the same molecule, the TGI in the test with RPMI-8226 leukemia and in the test with TK-10 renal was above 100 µM each time.

In the case of `COC(=O)N[C@H]1CCc2cc(OC)c(OC)c(OC)c2-c2ccc(SC)c(=O)cc21`, the GI50 with COLO 205 colon is below 0.01 µM; with HOP-62 NSCLC it was below 0.01 µM; in the test with MDA-MB-231 breast it was below 0.01 µM; in the test with NCI-H460 lung it was below 0.01 µM; in the test with OVCAR-4 ovarian it was 0.0205 µM; in the test with OVCAR-5 ovarian, below 0.01 µM. Besides, the GI50 with RPMI-8226 leukemia is below 0.01 µM; in the test on TK-10 renal it was 13.1 µM. For the same molecule, the TGI is above 100 µM with HOP-62 NSCLC; 29 µM with MDA-MB-231 breast; above 100 µM in the test on NCI-H460 lung; above 100 µM with OVCAR-4 ovarian; above 100 µM in the test on OVCAR-5 ovarian; above 64.5 µM in the test on RPMI-8226 leukemia. For the same molecule, the TGI with TK-10 renal is above 100 µM.

Regarding `CC(=O)/C(=C\c1ccc(Cl)cc1)c1ccccc1`, the GI50 in the test on COLO 205 colon was 0.141 µM; with HOP-62 NSCLC, 0.179 µM; in the test on MDA-MB-231 breast, 0.212 µM; in the test with NCI-H460 lung, 0.0845 µM; in the test with OVCAR-4 ovarian, 0.382 µM; with RPMI-8226 leukemia it was 0.133 µM. Also, the GI50 with TK-10 renal was 2.76 µM. The TGI in the test on COLO 205 colon was 0.474 µM; with HOP-62 NSCLC, above 100 µM; in the test with MDA-MB-231 breast, above 100 µM; in the test on NCI-H460 lung, 13.5 µM; in the test with OVCAR-4 ovarian, above 100 µM; in the test on OVCAR-5 ovarian, above 100 µM. The TGI in the test with RPMI-8226 leukemia is 25.9 µM; in the test with TK-10 renal, above 66.6 µM.

For the molecule `CCOc1ccc(N(C)c2ccc(/C=C/C3=[N+](C)c4ccccc4C3(C)C)cc2)cc1`, the GI50 is 0.211 µM in the test with COLO 205 colon; 0.482 µM in the test on HOP-62 NSCLC; 0.485 µM with MDA-MB-231 breast; 0.306 µM in the test on NCI-H460 lung; 0.399 µM with OVCAR-4 ovarian; 1.28 µM in the test with OVCAR-5 ovarian. Further, in the test on RPMI-8226 leukemia, the GI50 is 0.139 µM. Moreover, the TGI in the test on COLO 205 colon was determined as 0.81 µM; in the test on HOP-62 NSCLC, 1.91 µM; with MDA-MB-231 breast, 2.22 µM; in the test with NCI-H460 lung, 1.38 µM; in the test with OVCAR-4 ovarian it was 2.18 µM; in the test with OVCAR-5 ovarian, 2.92 µM. Also, in the test with RPMI-8226 leukemia, the TGI is 0.602 µM.

Regarding `CN1C(=O)C(c2c[nH]c3ccccc23)=C(c2c[nH]c3ccccc23)C1=O`, the GI50 in the test with COLO 205 colon is 4.77 µM; in the test on HOP-62 NSCLC it was 6.68 µM; with MDA-MB-231 breast, 4.22 µM; with NCI-H460 lung, 5.52 µM; with OVCAR-4 ovarian it was 7.58 µM; in the test on OVCAR-5 ovarian, 9.88 µM. The results for the GI50 with RPMI-8226 leukemia and in the test with TK-10 renal were 6.84 µM and 12.5 µM, respectively. Besides, the TGI in the test with COLO 205 colon is 12.4 µM; in the test with HOP-62 NSCLC, above 25 µM; with MDA-MB-231 breast, 15.8 µM; in the test on NCI-H460 lung it was 15 µM; in the test on OVCAR-4 ovarian it was above 25 µM; in the test with OVCAR-5 ovarian it was above 25 µM. The figures for the TGI in the test with RPMI-8226 leukemia and with TK-10 renal were 25 µM and above 25 µM, respectively.

Take `Cn1cc(C2NC(=O)c3ccccc3N2)c2ccccc21` (stereo not given): the TGI with HOP-62 NSCLC is above 100 µM; in the test with MDA-MB-231 breast, above 100 µM; with NCI-H460 lung, above 42.8 µM; with OVCAR-4 ovarian it was 58.4 µM; with OVCAR-5 ovarian, above 100 µM; in the test on TK-10 renal, above 100 µM.

Take `O=c1nc2n(-c3cccc(Cl)c3)c3ccc([N+](=O)[O-])cc3cc-2c(=O)[nH]1`: the GI50 in the test with COLO 205 colon was 7.94 µM; in the test on HOP-62 NSCLC, 2.88 µM; in the test on MDA-MB-231 breast, 5.36 µM; in the test on NCI-H460 lung, 9.77 µM; in the test on OVCAR-4 ovarian, above 25 µM; in the test on OVCAR-5 ovarian, 11.7 µM. Further, the GI50 was 3.13 µM in the test on RPMI-8226 leukemia and 7.27 µM with TK-10 renal. Also, the TGI in the test with COLO 205 colon was above 25 µM; in the test with HOP-62 NSCLC, 9.2 µM; with MDA-MB-231 breast it was 12.3 µM; in the test with NCI-H460 lung, above 25 µM; in the test with OVCAR-4 ovarian it was above 25 µM; with OVCAR-5 ovarian, above 25 µM. In addition, the figures for the TGI in the test with RPMI-8226 leukemia and with TK-10 renal were 10.8 µM and 13.9 µM, respectively.

As to `COc1ccc(-c2nc3sc(-c4cc(OC)c(OC)c(OC)c4)nn3c2/C=C2/C(=O)Nc3ccc(F)cc32)cc1`, the GI50 with COLO 205 colon was 1.61 µM; in the test on HOP-62 NSCLC, 1.94 µM; in the test on MDA-MB-231 breast it was 5.25 µM; in the test on NCI-H460 lung it was 3.42 µM; with OVCAR-4 ovarian, 1.77 µM; in the test on OVCAR-5 ovarian, 6.14 µM. The GI50 was 11.3 µM in the test with RPMI-8226 leukemia and 2.26 µM in the test with TK-10 renal. Moreover, the TGI in the test with COLO 205 colon was found to be 4.13 µM; in the test on HOP-62 NSCLC it was 4.74 µM; in the test on MDA-MB-231 breast it was 20.7 µM; in the test with NCI-H460 lung, 15.3 µM; in the test with OVCAR-4 ovarian, 4.51 µM; with OVCAR-5 ovarian, 21.7 µM. In addition, the TGI turned out to be 64.6 µM in the test on RPMI-8226 leukemia and 4.23 µM in the test with TK-10 renal.

As to `O=C1C=C(Nc2ccccc2)c2ccccc2C1=O`, the GI50 was 1.96 µM in the test with COLO 205 colon; 1.17 µM with HOP-62 NSCLC; 1.88 µM with MDA-MB-231 breast; 2.44 µM in the test on NCI-H460 lung; 1.68 µM with OVCAR-4 ovarian; 1.85 µM in the test on OVCAR-5 ovarian. Further, the GI50 was 2.24 µM with RPMI-8226 leukemia and 2.86 µM in the test with TK-10 renal. Besides, the TGI in the test with COLO 205 colon is 3.61 µM; in the test on HOP-62 NSCLC, 2.83 µM; in the test on MDA-MB-231 breast, 7.61 µM; with NCI-H460 lung, 6.47 µM; in the test on OVCAR-4 ovarian it was 3.53 µM; in the test with OVCAR-5 ovarian, 3.33 µM. Further, the TGI in the test on RPMI-8226 leukemia was found to be 7.49 µM; in the test on TK-10 renal, 7.75 µM.

These data come from PubChem BioAssay (NCI).
